{"source": "patent US7678386B2", "about": "“Liposomes coated with selected antibodies that bind to aminophospholipids” (Board of Regents the University of Texas, priority 2002, dated 2010)", "assay": "Reactivity with plastic-immobilized phospholipids (ELISA), panel", "format": "binding", "method": "Phospholipids were dissolved in n-hexane to a concentration of 50 μg/ml. 100 μl of this solution was added to wells of 96-well microtiter plates. After evaporation of the solvent in air, the plates were blocked for 2 h with 10% fetal bovine serum diluted in DPBS containing 2 mM Ca^2+ (binding buffer).\n9D2 antibody or annexin V were diluted in the binding buffer in the presence of 10% serum at an initial concentration of 6.7 nM. Serial two-fold dilutions were prepared in the plates (100 μl per well). The plates were then incubated for 2 h at room temperature. The plates were washed and the 9D2 and annexin V were detected by goat anti-rat IgM conjugated to HRP and rabbit anti-human annexin V followed by goat anti-rabbit IgG conjugated to HRP (all diluted 1:1000), respectively. Secondary reagents were detected by using chromogenic substrate OPD followed by reading plates at 490 nm using a microplate reader (Molecular Devices, Palo Alto, Calif.).\nThe specificity of the 9D2 antibody binding was validated by using control rat IgM of irrelevant specificity (Pharmingen, San Diego, Calif.). The specificity of annexin V binding to phospholipids, which is Ca^2+-dependent, was determined by diluting the reagent in the DPBS containing 5 mM EDTA. Additional negative controls consisted of washing the plates with the binding buffer containing 0.2% of a detergent Tween 20. This treatment extracts lipids, thus removing the phospholipid that was absorbed to plastic. Neither 9D2 antibody nor annexin V bound to detergent-washed plates.", "data": [{"substance": "Annexin V: high affinity PS binding ligand; natural ligand of anionic phospholipids and PE", "values": [{"measurement": "binding to anionic phospholipids in the presence of 5 mM EDTA", "value": "abolished"}, {"measurement": "binding to heparin, heparan sulfate or double or single stranded DNA", "value": "did not bind detectably"}, {"measurement": "order of strength of binding to phospholipids in ELISA", "setting": "10% serum", "value": "PI>PS=PE=PA=CL>PG"}]}]}
